# Results published in PMC8318231, “Rate-of-Kill (RoK) assays to triage large compound sets for Chagas disease drug discovery: Application to GSK Chagas Box” (PLoS Neglected Tropical Diseases, 2021).
# Legend:
# [1] = system: T. cruzi Tulahuen trypomastigotes; experiment: T. cruzi trypomastigote assay (Cell Titer-Glo viability, ATP luminescence); assay type: cell-based, Trypanosoma cruzi; settings: for Trypomastigotes pIC50 48 hours: 48 hours incubation; for Trypomastigotes pIC50 48 hours / Trypomastigotes pIC50 72 hours: pIC50 = -log10 IC50 in molar units; for Trypomastigotes pIC50 72 hours: 72 hours incubation; for 72 pIC50 (trypomastigotes, raw data of Fig 1D): 72 hours, plotted values, censored values given without sign; for 48 pIC50 / 72 pIC50: trypomastigote assay; for 48 pIC50: 48 h; for 72 pIC50: 72 h
# Outline: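 Tulahuen trypomastigotes from infected LLC-MK2 culture supernatants (days 5–8) plated at 5 × 10^4 per well in DMEM/2% FBS with compound at 5 μM single-shot final or in dose response. Viability by CellTiter-Glo ATP luminescence after 10 min at room temperature, normalised to no-cell (100%) and DMSO (0%) controls.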
# [2] = system: T. cruzi intracellular amastigotes in H9c2 cells; experiment: Rate-of-Kill (RoK) high-content imaging assay, amastigotes per cell (AM/CELL) and curve descriptors; assay type: cell-based, Trypanosoma cruzi; parameters: key to ME_24h / ME_48h / ME_72h: % reduction in parasite burden (cidal response); t50pct_MCC50 / t50pct_Cmax: unit not given here; settings: for ME_24h: 24h; for ME_48h: 48h; for ME_72h: 72h; for tlag_Cmax / t50pct_Cmax / t50%_Cmax: at Cmax; for ME_24h (%): maximum effect at 24 h; for ME_24h (%) / ME_48h (%) / ME_72h (%): RoK assay; for ME_48h (%): maximum effect at 48 h; for ME_72h (%): maximum effect at 72 h; for ME 24h (maximum effect at 24 hours, intracellular amastigotes): maximum percentage of parasite burden reduction reached by any concentration
# Outline: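 H9c2 cardiomyocytes infected with T. cruzi trypomastigotes (MOI 8, 18 h), then compounds tested at 5 μM single shot or 11-point 1/3 dilution from 50 μM. DRAQ5-stained nuclei imaged over a time course. Amastigotes per cell normalised to infected cells at 4 h (0%) and non-infected cells (100%).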
SMILES,Trypomastigotes pIC50 48 hours [1],Trypomastigotes pIC50 72 hours [1],ME_24h ([2]; figure 5),ME_48h ([2]; figure 5),ME_72h ([2]; figure 5),MCCE ([2]; RoK curve descriptor) [µM],"AM/CELL NORM ([2]; Time 4, sheet figure 4 A)","AM/CELL NORM ([2]; Time 24, sheet figure 4 A)","AM/CELL NORM ([2]; Time 48, sheet figure 4 A)","AM/CELL NORM ([2]; Time 72, sheet figure 4 A)",tlag_Cmax [2] [h],t50pct_Cmax ([2]; figure 5),tlag_Cmax ([2]; figure 5),"t50pct_MCC50 ([2]; at MCC50, figure 5)","tlag_MCC50 ([2]; at MCC50, figure 5)",MCCE ([2]; figure 5),ME_24h (%) [2] [%],ME_48h (%) [2] [%],ME_72h (%) [2] [%],"ME 24h (maximum effect at 24 hours, intracellular amastigotes) [2] [%]",also measured
CCn1nccc1CN(C)C(=O)C=Cc1ccc(Cl)cc1 [TCMDC-143325],< 4.3,< 4.3,-25.9716,-135.889,23.6762,0.6,13.1334,-25.9716,-135.889,23.6762,48.0,72,48,72,72,0.6173,-26.0,-135.9,23.7,-25.9716,"72 pIC50 (trypomastigotes, raw data of Fig 1D) [1]: < 4.3; 48 pIC50 ([1]; figure 1A): < 4.3; 72 pIC50 ([1]; figure 1A): < 4.3; 72 pIC50 ([1]; figure 1B): < 4.3; MCC50 ([2]; figure 5): 50 µM"
Cc1[nH]nc2c1C(c1ccc(OCc3ccccc3F)cc1)SCC(=O)N2 (stereo not shown) [TCMDC-143328],5.1,5.1,2.825,-7.539,-52.7101,5.6,25.0577,-15.4729,-7.539,-52.7101,24.0,72,24,72,72,5.556,2.8,-7.5,-52.7,2.825,"72 pIC50 (trypomastigotes, raw data of Fig 1D) [1]: 5.1; 48 pIC50 ([1]; figure 1A): 5.1; 72 pIC50 ([1]; figure 1A): 5.1; 72 pIC50 ([1]; figure 1B): 5.1; MCC50 ([2]; figure 5): 50 µM"
CCCN(Cc1ccc(OC)c(OC)c1)Cc1cc(=O)c2c(C)cc(C)cc2[nH]1 [TCMDC-143331],5.4,5.6,53.5839,70.4309,85.455,1.9,14.9494,52.9561,75.3164,72.8804,4.0,24,4,48,4,1.852,53.6,70.4,85.5,54.2116,"activity in trypomastigotes assay (in words) ([1]; 48 and 72 hours): active; ME (maximum effect) in RoK assay (in words) [2]: high values in ME at the different times; tlag (in words) [2]: short tlag; MCC50 ([2]; RoK curve descriptor): 27.8 µM; t50%_Cmax [2]: 24.0 h; t50%_MCC50 ([2]; at MCC50): 48.0 h; tlag_MCC50 ([2]; at MCC50): 4.0 h; MCC50 ([2]; figure 5, in µM): 27.7778"
CC(C)(C)C(Cn1ccnc1)NC(=O)c1ccc2nc(C3CC3)oc2c1 (stereo not shown) [TCMDC-143336],5,< 4.3,-64.3403,-179.917,-53.9696,0.2,3.062,-93.0977,-442.656,-139.753,48.0,72,48,72,72,0.2058,-64.3,-179.9,-54.0,-64.3403,MCC50 ([2]; figure 5): 50 µM
c1ccc(CCNCc2cncc3nc(-c4cnccn4)n(C4CCCCC4)c23)cc1 [TCMDC-143346],< 4.3,< 4.3,-174.15,-60.952,17.2662,0.2,-7.276,-174.15,-60.952,6.4629,24.0,72,24,72,72,0.2058,-174.2,-61.0,17.3,-174.15,"72 pIC50 (trypomastigotes, raw data of Fig 1D) [1]: < 4.3; 48 pIC50 ([1]; figure 1A): < 4.3; 72 pIC50 ([1]; figure 1A): < 4.3; 72 pIC50 ([1]; figure 1B): < 4.3; MCC50 ([2]; figure 5): 50 µM"
CC(=O)Nc1ccc(-c2noc(CC3CCCN(Cc4cccc(F)c4C)C3)n2)cc1 (stereo not shown) [TCMDC-143362],5.2,5.3,28.3063,60.2253,68.1396,1.9,,,,,4.0,48,4,72,24,1.852,28.3,60.2,68.1,73.518,"MCC50 ([2]; RoK curve descriptor): 5.6 µM; AM/CELL NORM ([2]; Time 4, figure 4 A): -3.298; AM/CELL NORM ([2]; Time 24, figure 4 A): 28.3063; AM/CELL NORM ([2]; Time 48, figure 4 A): 60.2253; AM/CELL NORM ([2]; Time 72, figure 4 A): 68.1396; t50%_Cmax [2]: 48.0 h; t50%_MCC50 ([2]; at MCC50): 72.0 h; tlag_MCC50 ([2]; at MCC50): 24.0 h; MCC50 ([2]; figure 5, in µM): 5.556"
N#Cc1ccc(S(=O)(=O)N2CCC3(CCN(c4ccccc4)C3=O)CC2)cc1 [TCMDC-143371],< 4.3,< 4.3,-78.0559,40.2473,62.6058,1.2,10.0376,-56.4995,45.4375,85.4584,36.0,72,36,72,48,1.235,-78.1,40.3,62.6,-50.5626,"72 pIC50 (trypomastigotes, raw data of Fig 1D) [1]: < 4.3; 48 pIC50 ([1]; figure 1A): < 4.3; 72 pIC50 ([1]; figure 1A): < 4.3; 72 pIC50 ([1]; figure 1B): < 4.3; MCC50 ([2]; RoK curve descriptor): 5.6 µM; t50%_Cmax [2]: 72.0 h; t50%_MCC50 ([2]; at MCC50): 72.0 h; tlag_MCC50 ([2]; at MCC50): 24.0 h; MCC50 ([2]; figure 5, in µM): 27.7778"
